Assay results: patent US5436246A, “Serotonin receptor agents” (priority 1993, dated 1995)
Where a name gives a salt, the structure may show the parent alone. Read-outs that look alike come from different tables or passages of the source.

Key:
[1] = molecular target: T1, 5HT1A receptor (Rattus norvegicus, UniProt P19327); experiment: 5HT1A receptor binding affinity (procedure of Gozlan et al.)
T1 sequence (P19327 1-422): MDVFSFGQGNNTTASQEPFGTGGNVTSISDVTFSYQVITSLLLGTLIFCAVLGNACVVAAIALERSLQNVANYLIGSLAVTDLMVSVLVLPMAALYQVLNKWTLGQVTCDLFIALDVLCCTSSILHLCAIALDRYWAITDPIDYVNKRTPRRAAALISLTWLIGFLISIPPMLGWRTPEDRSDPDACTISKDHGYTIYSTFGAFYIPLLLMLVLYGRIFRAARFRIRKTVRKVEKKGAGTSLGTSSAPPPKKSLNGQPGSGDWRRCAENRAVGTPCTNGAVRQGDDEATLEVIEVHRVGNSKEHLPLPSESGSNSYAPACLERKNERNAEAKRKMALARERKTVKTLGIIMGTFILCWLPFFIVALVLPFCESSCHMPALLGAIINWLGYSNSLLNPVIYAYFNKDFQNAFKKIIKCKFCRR
Procedure: In the following examples, the compounds binding affinity for both the 5HT1A receptor and 5HT1D receptors is reported. The compounds affinity for the 5HT1D site was determined by the binding procedure of Peroutka et al as reported in European Journal of Pharmacology, Vol. 163 at pages 133-166 (1989). The compounds affinity for the 5HT1A receptor was determined by the procedure of Gozlan et al., as reported in Nature, Volume 305, at pages 140-142 (1983). Where multiple determinations of the binding affinity have been performed, the average is given followed by the number of determinations in parentheses. Also, the PA2 value for the saphenous vein preparation as described in this application is given, followed by the intrinsic (agonist) activity in parentheses, expressed as a percentage. [drawing 10] […]

[2] = molecular target: T2, 5HT1D receptor (Bos taurus, UniProt F1MGM3); experiment: 5HT1D receptor binding affinity (procedure of Peroutka et al.)
T2 construct: from tissue
T2 sequence (F1MGM3 1-403): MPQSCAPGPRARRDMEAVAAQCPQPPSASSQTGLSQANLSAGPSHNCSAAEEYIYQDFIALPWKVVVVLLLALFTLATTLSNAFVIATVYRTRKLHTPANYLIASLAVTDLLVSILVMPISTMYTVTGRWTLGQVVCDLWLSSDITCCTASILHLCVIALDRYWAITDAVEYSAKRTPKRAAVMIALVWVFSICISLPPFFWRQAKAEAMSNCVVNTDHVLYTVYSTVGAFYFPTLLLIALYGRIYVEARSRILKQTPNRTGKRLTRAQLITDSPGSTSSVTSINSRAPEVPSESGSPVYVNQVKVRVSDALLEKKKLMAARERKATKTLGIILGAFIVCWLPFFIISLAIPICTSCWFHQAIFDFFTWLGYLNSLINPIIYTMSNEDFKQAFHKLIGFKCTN
Procedure: The compounds affinity for the 5HT1D site was determined by the binding procedure of Peroutka et al as reported in European Journal of Pharmacology, Vol. 163 at pages 133-166 (1989). […] Where multiple determinations of the binding affinity have been performed, the average is given followed by the number of determinations in parentheses.

[3] = molecular target: 5-HT1D receptors (Canis lupus familiaris, UniProt P79250); set-up: species or system dog (canine); conditions: for Emax: dog, read-out: intrinsic (agonist) activity, saphenous vein preparation
Chain of 5-HT1D receptors (P79250 whole entry): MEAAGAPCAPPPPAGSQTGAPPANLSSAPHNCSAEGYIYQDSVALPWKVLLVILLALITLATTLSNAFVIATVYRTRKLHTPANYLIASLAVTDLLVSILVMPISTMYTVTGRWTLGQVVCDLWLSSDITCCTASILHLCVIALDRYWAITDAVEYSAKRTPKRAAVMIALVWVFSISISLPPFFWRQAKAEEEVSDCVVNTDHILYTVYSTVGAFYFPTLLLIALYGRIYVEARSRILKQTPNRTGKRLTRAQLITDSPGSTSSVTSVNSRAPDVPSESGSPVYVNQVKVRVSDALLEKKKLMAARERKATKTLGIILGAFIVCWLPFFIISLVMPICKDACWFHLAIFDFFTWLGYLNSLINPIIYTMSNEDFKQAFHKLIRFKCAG
Procedure: In the following examples, the compounds binding affinity for both the 5HT1A receptor and 5HT1D receptors is reported. The compounds affinity for the 5HT1D site was determined by the binding procedure of Peroutka et al as reported in European Journal of Pharmacology, Vol. 163 at pages 133-166 (1989). The compounds affinity for the 5HT1A receptor was determined by the procedure of Gozlan et al., as reported in Nature, Volume 305, at pages 140-142 (1983). Where multiple determinations of the binding affinity have been performed, the average is given followed by the number of determinations in parentheses. Also, the PA2 value for the saphenous vein preparation as described in this application is given, followed by the intrinsic (agonist) activity in parentheses, expressed as a percentage. [drawing 10]
We have used canine saphenous vein for studying 5-HT1D receptors which is similar, although not totally identical, to human coronary 5-HT1D receptors (see Humphrey, P. P. A., Feniuk, W., Perren, M. J., Connor, H. E., Oxford, A. W., Coates, I. H. and Butina, D.: GR43175, a selective agonist for the 5-HT1 -like receptor in dog isolated saphenous vein, Br. J. Pharmacol. 94:1123-1132, 1988; Kaumann, A. J.: Human heart 5-HT receptors, Second international symposium on serotonin, from cell biology to pharmacology and therapeutics, Houston, Sep. 15-18, 1992).
Mongrel dogs weighing 12-18 kg were killed by an intravenous injection of an overdose of sodium pentobarbitol. Saphenous veins were isolated, removed, cleaned of surrounding connective tissue, and cut into helical strips in a dish containing Krebs-Henseleit solution with the following composition in mM: NaCl, 110.0; KCl, 4.8; CaCl2, 2.5; KH2 PO4, 1.2; EDTA(NaEDTA), 0.027; and was constantly bubbled with 95% O2 -5% CO2. Unless otherwise specified, the endothelium of the […] was removed by rubbing with a metal rod. The intactness or absence of functional endothelium was checked by the presence or absence of a relaxant effect of acetycholine (10^-5 M) in phenylephrine-contracted tissues (see Furchgott, R. F. and Zawadzki, J. V.: The obligatory role of endothelial cells in the relaxtion of arterial smooth muscle by acetycholine, Nature 288:373-376, 1980). Each muscle strip (3×30 mm) was set up in a tissue bath at 37° C. and loaded with 2 gram tension. Contractility of the tissues was measured isometrically with a Grass FT03 force-displacement transducer and recorded on a Strip chart recorder. The tissues were allowed to stabilize for 2 hours before the experiment was started, during which time they were washed repeatedly. Tissues were contracted with 3.162×10^-6 M phenylephrine and 40 mM KCl, which produced 60-70% of their maximum contractile responses, to condition the tissue. 5-HT dose response experiment was conducted. Test compounds were then incubated with the tissue before a second 5-HT dose response experiment was performed. Data are expressed as the pA2 value, the negative logarithm of the molar concentration of antagonist which produced a 2 fold shift in ED50 values of 5-HT dose response curves (see Van Rossum, J. M.: Cumulative dose-response curve: Technique for the making of dose-response curves in isolated organs and the evaluation of drug parameters, Arch. Int. Pharmacodyn. Ther. 143:299-330, 1963).

[4] = average of multiple determinations where number in parentheses is given, read-out: IC50 (5HT1A Binding Affinity)
[5] = average of multiple determinations where number in parentheses is given, read-out: IC50 (5HT1D Binding Affinity)
[6] = canine saphenous vein, printed in parentheses after pA2
[7] = negative log molar concentration of antagonist producing 2 fold shift in ED50 of 5-HT dose response curves, read-out: pA2 (blocking of 5-HT1-like-mediated contraction in canine saphenous vein) (converted)

SMILES	Emax [3] [%]	IC50 [1, 4] [µM]	IC50 [2, 5] [µM]	Kb [3, 7] [µM]	other results
COCc1cc2c(N3CCN(CCc4ccc(F)cc4)CC3)cccc2s1 [Example 46, 4-[4-(2-(4-fluorophenyl)-ethyl)-1-piperazinyl]benzo [b]thiophene 2-methoxymethyl hydrochloride, 0.2 hydrate]	5				IC50 ([1]; read-out: IC50 (5HT1A Binding Affinity), average of multiple determinations where number in parentheses is given): 0.004 µM; IC50 ([2]; read-out: IC50 (5HT1D Binding Affinity), average of multiple determinations where number in parentheses is given): 0.017 µM; pA2 (blocking of 5-HT1-like-mediated contraction in canine saphenous vein) ([3]; negative log molar concentration of antagonist producing 2 fold shift in ED50 of 5-HT dose response curves): 7.98
CN(C)C(=O)c1cc2c(N3CCN(CCc4ccccc4)CC3)cccc2s1 [Example 11, 4-[4-(2-phenylethyl)-1-piperazinyl]-benzo[b]thiophene-2-(N,N-dimethyl)-carboxamide monohydrochloride]		0.0023	0.003	0.000977	Emax [3, 6]: 2%
NC(=O)c1cc2c(N3CCN(CCCc4ccccc4)CC3)cccc2s1 [Example 17, 4-[4-(3-phenylpropyl)-1-piperazinyl]-benzo[b]thiophene-2-carboxamide monohydrochloride]		0.001	0.0045	0.0166	
CCOC(=O)c1cc2c(N3CCN(CCc4ccc(Cl)cc4)CC3)cccc2s1 [Example 18, ethyl-4-[4-[2-(4-chlorophenyl)ethyl]-1-piperazinyl]-benzo[b]thiophene-2-carboxylate monohydrochloride]		0.053	0.411	0.309	
N#Cc1cc2c(N3CCN(CCc4ccc(F)cc4)CC3)cccc2s1 [Example 24, 4-[4-[2-(4-fluorophenyl)ethyl]-1-piperazinyl]-benzo[b]thiophene-2-nitrile monohydrochloride]	9				IC50 [1]: 0.01 µM; IC50 [2]: 0.021 µM; Kb [3]: 0.00676 µM
CCOC(=O)c1cc2c(N3CCN(CCc4ccc(F)cc4)CC3)cccc2s1 [Example 22, ethyl-4-[4-[2-(4-fluorophenyl)ethyl]-1-piperazinyl]-benzo[b]thiophene-2-carboxylate monohydrochloride]	0	0.0074	0.12	0.0295	
O=C(c1cc2c(N3CCN(CCc4ccccc4)CC3)cccc2s1)N1CCCC1 [Example 57, [4-(4-phenethyl-piperazin-1-yl)-benzo[b]thiophen-2-yl]-pyrrolidin-1-yl methanone hydrochloride]	0		0.025	0.00427	
O=C(Nc1ccccc1)c1cc2c(N3CCN(CCc4ccccc4)CC3)cccc2s1 [Example 12, 4-[4-(2-phenylethyl)-1-piperazinyl]-benzo[b]thiophene2-(N-phenyl)-carboxamide monohydrochloride]		0.085	0.22	0.0182	Emax [3, 6]: 0%
CCCN1CCN(c2cccc3sc(C(=O)OCC)cc23)CC1 [Example 34, Ethyl 4-[(4-propyl)-1-piperazinyl]benzo[b]thiophene-2-carboxylate hydrochloride]	12	0.104	0.416	0.166	
CC(=O)c1cc2c(N3CCN(CCc4ccccc4)CC3)cccc2s1 [Example 42, 1-[4-(4-phenethyl-piperazin-1-yl)-benzo[b]thiophen-2-yl]ethanone hydrochloride]	1				IC50 [2]: 0.022 µM; Kb [3]: 0.0135 µM
OCC=Cc1cc2c(N3CCN(CCc4ccccc4)CC3)cccc2s1 [Example 59, 3-[4-(4-phenethyl-piperazin-1-yl)-benzo[b]thiophen-2-yl]-prop-2-en-1-ol hydrochloride]	0				Kb [3]: 0.00055 µM
N#Cc1cc2c(N3CCN(CCc4ccccc4)CC3)cccc2s1 [Example 8, 4-[4-(2-phenylethy-1-piperazinyl]-benzo[b]thiophene-2-nitrilemonohydrochloride]					IC50 [1]: 0.004 µM; IC50 [2]: 0.018 µM
NC(=O)c1cc2c(N3CCN(Cc4ccccc4)CC3)cccc2s1 [Example 4, 4-[4-(phenylmethyl)-1-piperazinyl]-benzo[b]thiophene-2-carboxamide monohydrochloride]		0.0016	0.052		
OCc1cc2c(N3CCN(Cc4ccccc4)CC3)cccc2s1 [Example 2, 4-[4-(phenylmethyl)-1-piperazinyl]-benzo[b]thiophene-2-methanol monohydrochloride]		0.035	0.76		
CCOC(=O)c1cc2c(N3CCN(CCc4ccccc4)CC3)cccc2s1 [Example 6, ethyl-4-[4-(2-phenylethyl)-1-piperazinyl]-benzo[b]thiophene-2-carboxylate monohydrochloride]		0.037	0.108		
CCOC(=O)c1cc2c(N3CCN(CCCc4ccccc4)CC3)cccc2s1 [Example 14, ethyl-4-[4-(3-phenylpropyl)-1-piperazinyl]-benzo[b]thiophene-2-carboxylatemonohydrochloride]		0.239	0.551		
CCOC(=O)c1cc2c(N3CCN(CCc4ccc(OC)cc4)CC3)cccc2s1 [Example 30, ethyl-4-[4-[2-(4-methoxyphenyl)ethyl]-1-pierazinyl]-benzo-[b]thiophene-2-carboxylate monohydrochloride]		0.074	0.073		
O=C(c1cc2c(N3CCN(CCc4ccccc4)CC3)cccc2s1)N1CCCCC1 [Example 56, [4-(4-phenethyl-piperazin-1-yl)-benzo[b]thiophen-2-yl]-piperidin-1-yl methanone hydrochloride]	2		0.135	0.112	
NCc1cc2c(N3CCN(CCc4ccccc4)CC3)cccc2s1 [Example 55, 4-[4-(2-phenylethyl)-1-piperazinyl]-benzo[b]thiophene-2-methanamine dihydrochloride]					IC50 [1]: 0.003 µM; IC50 [2]: 0.012 µM
OCc1cc2c(N3CCN(CCc4ccc(Cl)cc4)CC3)cccc2s1 [Example 19, 4-[4-[2-(4-chlorophenyl)ethyl]-1-piperazinyl]-benzo[b]thiophene-2-methanolmonohydrochloride]					IC50 [1]: 0.002 µM; IC50 [2]: 0.01 µM
